Tests used:
[1] = in protic solvent; cited from earlier work
[2] = storage stability of the boronic acid on exposure to air; format: physicochemical; conditions: without taking any precautions to avoid exposure to air

stability of the sample on storage [2] | SMILES | rate constant k of reduction of nitroxide by phenols (hydrogen transfer) [1]
 | O=C(O)c1cc(O)c(O)c(O)c1 [gallic acid] | 0.003 M⁻¹ s⁻¹
 | Cc1c(C)c2c(c(C)c1O)CCC(C)(C(=O)O)O2 (stereo not shown) [TROLOX] | 0.2 M⁻¹ s⁻¹
 | Cc1cc(C(C)(C)C)c(O)c(C(C)(C)C)c1 [BHT] | 0.003 M⁻¹ s⁻¹
stable for over a year | CCCCB(O)O [n-butyl boronic acid] | 

— US20140242712A1, “FLUORESCENCE DETECTION OF POISON OAK OIL” (priority 1999, published 2014)
